Patent US9284304B2, “Substituted pyrimidines as toll-like receptor modulators” (JANSSEN SCIENCES IRELAND UC, priority 2012, dated 2016)

What was measured:
human TLR7 (hTLR7) = target: T1, human TLR7 (hTLR7) (Homo sapiens, UniProt Q9NYK1); experiment: TLR7 cellular NFκB-luc reporter assay in transiently transfected HEK293 cells; format: cell-based; design: unit not given here; details: lowest effective concentration, wild type TLR7, 48 hours incubation
T1 construct: expressed in transfected cells; host or cells: HEK293
T1 sequence (Q9NYK1 27-1049): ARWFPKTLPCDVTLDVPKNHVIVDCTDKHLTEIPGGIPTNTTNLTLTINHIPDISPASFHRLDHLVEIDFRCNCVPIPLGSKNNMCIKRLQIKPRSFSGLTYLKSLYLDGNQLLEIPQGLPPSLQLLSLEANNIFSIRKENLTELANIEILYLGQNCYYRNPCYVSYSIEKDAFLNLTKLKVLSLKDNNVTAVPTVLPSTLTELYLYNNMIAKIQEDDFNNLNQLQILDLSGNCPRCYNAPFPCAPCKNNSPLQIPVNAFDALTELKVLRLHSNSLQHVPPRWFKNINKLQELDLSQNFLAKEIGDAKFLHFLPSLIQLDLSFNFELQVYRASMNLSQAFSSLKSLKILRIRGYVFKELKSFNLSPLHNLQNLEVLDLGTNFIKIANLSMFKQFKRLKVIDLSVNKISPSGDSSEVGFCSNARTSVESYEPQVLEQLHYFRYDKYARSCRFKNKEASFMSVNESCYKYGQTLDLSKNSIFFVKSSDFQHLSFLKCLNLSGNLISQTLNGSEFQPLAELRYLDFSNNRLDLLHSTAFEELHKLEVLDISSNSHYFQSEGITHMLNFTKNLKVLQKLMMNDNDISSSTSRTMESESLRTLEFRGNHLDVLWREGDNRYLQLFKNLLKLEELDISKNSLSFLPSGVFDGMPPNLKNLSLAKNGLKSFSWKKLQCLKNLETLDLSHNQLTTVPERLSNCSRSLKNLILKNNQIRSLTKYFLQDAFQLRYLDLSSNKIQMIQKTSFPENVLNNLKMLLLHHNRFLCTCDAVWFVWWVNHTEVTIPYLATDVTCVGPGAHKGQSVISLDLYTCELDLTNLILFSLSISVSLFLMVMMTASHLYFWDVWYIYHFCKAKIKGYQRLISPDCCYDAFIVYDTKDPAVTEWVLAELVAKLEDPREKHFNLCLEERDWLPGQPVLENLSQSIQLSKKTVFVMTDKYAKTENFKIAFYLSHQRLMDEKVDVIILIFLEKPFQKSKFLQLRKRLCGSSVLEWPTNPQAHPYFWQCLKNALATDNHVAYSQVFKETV
Protocol: (§1) The ability of compounds to activate human TLR7 (hTLR7) and/or TLR8 (hTLR8) was assessed in a cellular reporter assay using HEK293 cells transiently transfected with a TLR7 or TLR8 expression vector and NFκB-luc reporter construct. In one instance the TLR expression construct expresses the respective wild type sequence or a mutant sequence comprising a deletion in the second leucine-rich repeat of the TLR. […] Briefly, HEK293 cells were grown in culture medium (DMEM supplemented with 10% FCS and 2 mM Glutamine). For transfection of cells in 10 cm dishes, cells were detached with Trypsin-EDTA, transfected with a mix of CMV-TLR7 or TLR8 plasmid (750 ng), NFκB-luc plasmid (375 ng) and a transfection reagent and incubated overnight at 37° C. in a humidified 5% CO2 atmosphere. Transfected cells were then detached with Trypsin-EDTA, washed in PBS and resuspended in medium to a density of 1.67×10^5 cells/mL. Thirty microliters of cells were then dispensed into each well in 384-well plates, where 10 μL of compound in 4% DMSO was already present. Following 48 hours incubation at 37° C., 5% CO2, the luciferase activity was determined by adding 15 μl of Steady Lite Plus substrate (Perkin Elmer) to each well and readout performed on a ViewLux ultraHTS microplate imager (Perkin Elmer). Dose response curves were generated from measurements performed in quadruplicates. Lowest effective concentrations (LEC) values, defined as the concentration that induces an effect which is at least two fold above the standard deviation of the assay, were determined for each compound.

human TLR8 (hTLR8) = target: T2, human TLR8 (hTLR8) (Homo sapiens, UniProt Q9NR97); experiment: TLR8 cellular NFκB-luc reporter assay in transiently transfected HEK293 cells; format: cell-based; design: unit not given here; details: lowest effective concentration, wild type TLR8, 48 hours incubation
T2 construct: expressed in transfected cells; host or cells: HEK293
T2 sequence (Q9NR97 27-1041): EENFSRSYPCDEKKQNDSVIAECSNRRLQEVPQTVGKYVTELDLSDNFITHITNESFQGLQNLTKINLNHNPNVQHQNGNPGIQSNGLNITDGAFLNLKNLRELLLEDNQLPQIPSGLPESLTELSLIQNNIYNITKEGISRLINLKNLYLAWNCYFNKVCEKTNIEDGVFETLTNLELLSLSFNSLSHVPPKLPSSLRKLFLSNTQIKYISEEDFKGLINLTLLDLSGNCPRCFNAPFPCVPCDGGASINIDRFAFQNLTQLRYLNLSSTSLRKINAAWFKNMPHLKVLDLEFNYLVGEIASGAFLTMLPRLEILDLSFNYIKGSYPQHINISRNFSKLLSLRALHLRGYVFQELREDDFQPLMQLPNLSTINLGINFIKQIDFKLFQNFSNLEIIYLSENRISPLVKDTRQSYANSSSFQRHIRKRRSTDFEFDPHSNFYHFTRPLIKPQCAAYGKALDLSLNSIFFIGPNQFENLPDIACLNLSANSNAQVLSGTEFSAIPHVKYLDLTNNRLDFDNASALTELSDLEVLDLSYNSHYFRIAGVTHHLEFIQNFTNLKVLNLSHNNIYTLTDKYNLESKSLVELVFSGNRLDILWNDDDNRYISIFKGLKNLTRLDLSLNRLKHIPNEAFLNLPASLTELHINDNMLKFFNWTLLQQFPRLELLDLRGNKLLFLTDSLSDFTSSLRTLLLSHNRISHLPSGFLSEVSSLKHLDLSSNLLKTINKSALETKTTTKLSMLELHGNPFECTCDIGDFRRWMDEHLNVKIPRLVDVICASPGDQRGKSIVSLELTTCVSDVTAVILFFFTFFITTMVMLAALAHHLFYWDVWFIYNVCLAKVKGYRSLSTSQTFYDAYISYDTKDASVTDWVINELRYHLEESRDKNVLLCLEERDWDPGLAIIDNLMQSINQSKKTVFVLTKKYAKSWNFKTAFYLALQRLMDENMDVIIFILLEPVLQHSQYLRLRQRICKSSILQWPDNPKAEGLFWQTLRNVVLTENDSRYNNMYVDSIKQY
Protocol: as §1

hTLR7 wt (LEC) (human TLR7 (hTLR7)) | hTLR8 wt (LEC) (human TLR8 (hTLR8)) | Structure (SMILES)
2.4 | 1.3 | CCCCNc1nc(N)ncc1CC.Cl [Example 1]
6.7 | 6.5 | CCCCNc1nc(N)ncc1CCc1ccccc1.Cl [Example 2]
2.4 | 12 | CCCCNc1nc(N)ncc1CCc1ccc(OC)cc1OC.Cl [Example 3]
5 | 13 | CCCCNc1nc(N)ncc1CCc1ccccc1OC.Cl [Example 4]
1.2 | 1.4 | CCCCNc1nc(N)ncc1CCc1cccnc1.Cl [Example 5]
0.6 | 1.6 | CCCCNc1nc(N)ncc1CCc1ccccn1.Cl [Example 6]
0.5 | 1.2 | CCCCNc1nc(N)ncc1CCc1ccc2ccccc2n1.Cl [Example 7]
8.1 | 3.6 | CCCCNc1nc(N)ncc1CCc1cccs1.Cl [Example 8]
